Data from a melting point compilation (Tetko et al.).

Conditions: a range is the spread between reports

| Compound | melting point [°C] |
| --- | --- |
| N#CI | 146 to 147 |
| CCCCCCCCCCCCCC=O | 20.5 to 24 |
| N#Cc1ccc(C(N)=O)cc1 | 224 to 227 |
| O=C1c2ccccc2C(=O)N1CCCBr | 74 to 75 |
| CC(=O)Nc1ccc2c(c1)Cc1ccccc1-2 | 193 to 194 |
| O=[N+]([O-])c1cc(I)c(O)c(I)c1 | 153 to 157 |
| COC(=O)CC(=O)OC | -62 to -61.9 |
| Brc1ccc(Oc2ccc(Br)cc2)cc1 | 58 to 60.5 |
| Cc1ccc2cccc([N+](=O)[O-])c2n1 | 138 to 140 |
| C=C(Br)CC | -133 |
| C=CCC(C)(C)C | -137 |
| CC | -183 |
| C=CC(C)C | -168 |
| O=C1CCCCCCCCCCC1 | 60 to 61 |
| O=C1C(F)=C(F)C(=O)C(F)=C1F | 179 to 184 |
| CC(=O)c1ccc(Br)cc1 | 50.5 to 51 |
| Oc1cccc2ccccc12 | 95 to 96 |
| Fc1cc(F)c(F)c(F)c1F | -48 to -47.3 |
| OCc1cccc(O)c1 | 71 to 73 |
| CCCCCCCCCCCCCCCC(=O)OC | 30 to 31 |
| CCOC(=O)C(=O)OCC | -41 to -40 |
| O=C(O)C(F)(F)F | -15.2 to -15 |
| CC(C)CC(C)(C)C | -107 |
| CC(=O)Nc1cccc(Cl)c1 | 77 to 80 |

| Compound | melting point [°C] |
| --- | --- |
| CCc1ccc(CC)cc1 | -43 to -42.8 |
| CCN(CC)c1ccc2c(C)cc(=O)oc2c1 | 70 to 74 |
| Oc1cccc(Cl)c1Cl | 56 to 59 |
| O=C(c1ccccc1)c1c(F)c(F)c(F)c(F)c1F | 37 to 38 |
| CS | -123 to -121 |
| C=CCCC(=O)O | -22.5 to -22 |
| CCCCC(=O)c1ccccc1 | -9.4 to -9 |
| COC(=O)c1cc(Cl)ccc1N | 67 to 69 |
| O=C(O)CCC(=O)C(=O)O | 115 to 116 |
| CCCCC(=O)O | -34 to -33.7 |
| CCCC=C(C)C | -130 |
| CCC(C)(O)CC | -24 to -23.6 |
| N#CC1=C(C#N)C(=O)C(Cl)=C(Cl)C1=O | 214 to 215 |
| C[Si](C)(C)C | -100 to -99 |
| CCOC(=O)c1cccc([N+](=O)[O-])c1 | 42 to 47 |
| COc1ccc(Cl)cc1Cl | 26 to 28.5 |
| CC(C)COC(=O)C(C)C | -81 to -80 |
| O=C(O)Cc1ccc(-c2ccccc2)cc1 | 160 to 161 |
| NC(N)=NC(=O)c1nc(Cl)c(N)nc1N | 240 to 241 |
| CC(C)(C)OO | -8 to -3 |
| O=Cc1ccc2c(c1)OCO2 | 36 to 37 |
| Cc1ccc(C)s1 | -63 to -62.6 |
| CCCCCCCCCCCCCCCCCCN | 52.9 to 56 |
| Clc1nc(Cl)nc(Nc2ccccc2Cl)n1 | 160 |

| Compound | melting point [°C] |
| --- | --- |
| COc1ccc(-c2ccccc2)cc1 | 88 to 91 |
| CC#CC | -32.3 to -32 |
| Clc1ccc(Cl)s1 | -41 to -40.5 |
| Cc1ccccc1-c1ccccc1 | -0.2 to 0 |
| O=C(O)c1ccccc1Br | 146 to 150 |
| c1cc2c3c(c1)ccc1cccc(c13)C2 | 114 to 116 |
| CC(C)=C(C)C(C)C | -113 |
| O=C(O)c1cc(-c2ccc(F)cc2F)ccc1O | 210 to 216 |
| O=Cc1ccc(C(F)(F)F)cc1 | 1.5 to 2 |
| OC(c1ccccc1)c1ccccc1 | 66 to 69 |
| Nc1nc(Cl)cc(Cl)n1 | 220 |
| O=C(Cl)c1ccccc1C(=O)Cl | 12 to 15.5 |
| CCOC(=O)c1cc([N+](=O)[O-])cc([N+](=O)[O-])c1 | 92 to 94 |
| Cc1ccnc(N)n1 | 160 |
| c1ccc2c(c1)OCCOCCOCCOCCO2 | 79 to 80 |
| CCCCS | -116 |
| OCCCCCCCCCCO | 72 to 74 |
| OCCN1CCCCC1 | 16 to 17.9 |
| N#CC(Br)(Br)C(N)=O | 124 |
| COc1cc(Cl)ccc1O | 16.5 to 17 |
| CC(C(C)(C)C)C(C)(C)C | -39 to -38.7 |
| Cc1ccc(S(N)(=O)=O)cc1 | 138 to 139 |
| Cc1ncc([N+](=O)[O-])n1CCO | 159 to 160 |
| COCC(=O)O | 7.7 to 8 |

| Compound | melting point [°C] |
| --- | --- |
| OCc1ccncc1 | 53 to 54 |
| Cc1ccc(N)cc1Br | 26 to 27 |
| CC(=O)CCCC(=O)O | 12 to 13.5 |
| COC(=O)c1c[nH]c2ccccc12 | 150 to 151 |
| O=C(O)C(=Cc1ccccc1)c1ccccc1 | 171 to 172 |
| O=C1OC(=O)c2cccc3cccc1c23 | 270 to 271 |
| N#Cc1ccc(O)cc1 | 112 |
| O=C=Nc1ccc(Cl)c(Cl)c1 | 42 to 43 |
| CCC(=O)c1cc(F)c(O)c(F)c1 | 127 to 130 |
| CCCCCCCCCCC(C)=O | 19 to 21 |
| CC=C1CCCC1 | -130 |
| O=C(c1ccccc1)c1cccc(Br)c1 | 76 to 81 |
| Cc1ccc(P(c2ccc(C)cc2)c2ccc(C)cc2)cc1 | 145 to 149 |
| O=P(O)(c1ccccc1)c1ccccc1 | 194 to 195 |
| CCOC(=O)c1ccc(O)cc1 | 116 to 117 |
| O=C(Cl)c1cc(C(=O)Cl)cc(C(=O)Cl)c1 | 36 to 36.3 |
| CC(C)(O)C(C)(C)O | 43 to 44 |
| CCOC(=O)CC | -73.9 to -73 |
| CN(C)c1cccc2c(S(=O)(=O)Cl)cccc12 | 70 to 72 |
| Cc1cccs1 | -63.4 to -63 |
| Cc1ccc(C)c(C)c1 | -44 to -43.8 |
| CC(C)(C)C1=CC(=O)C(=O)C(C(C)(C)C)=C1 | 114 to 115 |
| C1CN2CCN1CC2 | 158 to 159 |
| N#Cc1ccncc1 | 76 to 79 |

| Compound | melting point [°C] |
| --- | --- |
| Nc1ccccc1Br | 29 to 32 |
| COc1ccc(C(=O)OC(=O)c2ccc(OC)cc2)cc1 | 94.5 to 97 |
| C1CCCCCCCCCCCCCC1 | 61.3 to 62 |
| COC(=O)c1ccc(OC)cc1 | 49 to 50 |
| O=Cc1ccc(O)cc1 | 117 to 118 |
| CCCCCCCCC | -54 to -53 |
| CC12CCC(=O)C=C1CCC1C2CCC2(C)C1CCC2(C)O (configuration not stated) | 163 to 164 |
| NC(=O)c1cccc(Br)c1 | 155 |
| CCC#CCCC | -131 to -130 |
| O=Cc1cccc(C=O)c1 | 87.8 to 89.5 |
| N#Cc1cccc(N)c1 | 52 to 54.3 |
| CCCCCCC(C)C | -80.3 to -80 |
| Brc1ccccc1Br | 5 to 7.1 |
| c1ccc2c(c1)-c1cccc3c1c-2cc1ccccc13 | 164 to 168 |
| Oc1c(Cl)cccc1Cl | 65 to 68.5 |
| c1ccc(-c2ccc(-c3ccc(-c4ccccc4)cc3)cc2)cc1 | 317 to 320 |
| O=C1CC(=O)NC(=S)N1 | 234 to 235 |
| C=C(C)C(C)CC (configuration not stated) | -134 |
| Oc1cccc(O)c1O | 132 to 134 |
| Cc1cc(C)c(S(=O)(=O)Cl)c(C)c1 | 55 to 56 |
| CC(Br)CBr (configuration not stated) | -55.5 to -55 |
| Cc1ccc(Cc2ccccc2)cc1 | 4.58 to 5 |
| O=C(O)c1cc(Cl)cc(Cl)c1O | 220 to 224 |
| CC(C)(c1ccccc1)c1ccc(O)cc1 | 70 to 75 |

| Compound | melting point [°C] |
| --- | --- |
| CC(C)(N)CO | 25.5 to 30 |
| CC1CCCC1 | -143 to -142 |
| Nc1ccc(Cl)c([N+](=O)[O-])c1 | 100 to 103 |
| O=C1OC(=O)C2C3C=CC(C3)C12 (configuration not stated) | 164 to 166 |
| BrCc1ccc(CBr)cc1 | 142 to 144 |
| O=c1c(O)c(-c2ccccc2)oc2ccccc12 | 170 to 172 |
| O=C1CCO1 | -34 to -33.4 |
| OCc1cccc2ccccc12 | 61 to 64 |
| NC(=O)c1ccccc1N | 108 to 113 |
| CCCCCCCCCC#N | -17.9 to -15 |
| CCCCCCCCCCCCCCCCCCCCCCCCCCCCCCCCCCCCCCCC | 81 to 82 |
| OCCc1ccccn1 | -8 to -7.8 |
| CCC(C)(C)C(=O)OC1CC(C)C=C2C=CC(C)C(CCC3CC(O)CC(=O)O3)C21 (configuration not stated) | 136 |
| CC(=O)c1ccc(OCC(=O)O)cc1 | 173 to 176 |
| O=c1[nH]c2ccccc2n1CCCN1CCC(n2c(=O)[nH]c3cc(Cl)ccc32)CC1 | 238 to 242 |
| CCCCCCCCCCCCCCCC(C)C | 5.7 to 6 |
| COc1cc(C=O)ccc1O | 81.5 to 82 |
| CCOc1ccc(C=O)cc1 | 13.5 to 14 |
| Nc1cc(C(=O)O)ccc1Cl | 214 to 216 |
| CCCCCCCCCCCCCCCCCCCC | 36 to 37 |
| Nc1cccc(C(F)(F)F)c1 | 5.5 to 6 |
| CCN(CC)c1ccc(C=O)cc1 | 40 to 41 |
| O=C(O)CC[N+](=O)[O-] | 62 to 64 |
| Cc1ccc(O)c(C(=O)O)c1 | 151 to 153 |

| Compound | melting point [°C] |
| --- | --- |
| CC(C)(C)c1ccc(O)c(N)c1 | 161 to 163 |
| C=C(C)[C@@H]1CCC2=CC(=O)C[C@@H](C)[C@]2(C)C1 | 36 to 36.9 |
| CC(C)CC(C)C(C)C (configuration not stated) | -128 |
| O=[N+]([O-])c1cc([N+](=O)[O-])c(F)cc1F | 73 to 74 |
| O=[N+]([O-])c1cccc2cnccc12 | 108 to 110 |
| COc1ccc(NC(=O)N(C)C)cc1Cl | 126 to 127 |
| Cc1ccc2cccnc2c1 | 36.5 to 39 |
| C1OCOCO1 | 60.2 to 61 |
| O=C(O)c1cc([N+](=O)[O-])ccc1O | 230 to 232 |
| CCCCCS | -76 to -75.7 |
| O=C(O)c1c(Cl)cc(Cl)cc1Cl | 162 to 163 |
| O=C(O)c1c(F)c(F)c(F)c(F)c1F | 101 to 102 |
| Cc1ccc([N+](=O)[O-])cc1N | 106 to 108 |
| NNS(=O)(=O)c1ccccc1 | 102 to 103 |
| N#Cc1ccc(Cl)c([N+](=O)[O-])c1 | 99 to 100 |
| Cc1cc(Br)c(C)cc1Br | 73 to 74 |
| Clc1cccc(Br)c1Cl | 58 to 60 |
| c1ccc(-c2nc(-c3ccccc3)c(-c3ccccc3)[nH]2)cc1 | 275 to 276 |
| N#CCc1ccc([N+](=O)[O-])cc1 | 116 to 117 |
| O=C(O)c1ccc([N+](=O)[O-])c(O)c1 | 230 to 234 |
| CCc1ccncc1 | -91 to -90.5 |
| CCCC(C)(C)CC | -126 |
| CN | -93.4 to -93 |
